Reference: ChEMBL document CHEMBL6114998, “Design, Synthesis, and Pharmacological Evaluation of Quinazoline and Quinoline Derivatives as Potent ENPP1 Inhibitors for Cancer Immunotherapy” (J Med Chem, 2025)
The source made the active and inactive calls. The calls are words filed in the database; no cut-off is given here.

What was measured:
[1] = molecular target: T1, Ectonucleotide pyrophosphatase/phosphodiesterase family member 1 (Homo sapiens, UniProt P22413); test: Inhibition of recombinant human ENPP1 transfected in HEK293T cells using cGAMP as substrate at pH 7.5 measured after 3.5 hrs by luminescence based AMP-glo assay; type: cell-based
T1 sequence (P22413 whole entry): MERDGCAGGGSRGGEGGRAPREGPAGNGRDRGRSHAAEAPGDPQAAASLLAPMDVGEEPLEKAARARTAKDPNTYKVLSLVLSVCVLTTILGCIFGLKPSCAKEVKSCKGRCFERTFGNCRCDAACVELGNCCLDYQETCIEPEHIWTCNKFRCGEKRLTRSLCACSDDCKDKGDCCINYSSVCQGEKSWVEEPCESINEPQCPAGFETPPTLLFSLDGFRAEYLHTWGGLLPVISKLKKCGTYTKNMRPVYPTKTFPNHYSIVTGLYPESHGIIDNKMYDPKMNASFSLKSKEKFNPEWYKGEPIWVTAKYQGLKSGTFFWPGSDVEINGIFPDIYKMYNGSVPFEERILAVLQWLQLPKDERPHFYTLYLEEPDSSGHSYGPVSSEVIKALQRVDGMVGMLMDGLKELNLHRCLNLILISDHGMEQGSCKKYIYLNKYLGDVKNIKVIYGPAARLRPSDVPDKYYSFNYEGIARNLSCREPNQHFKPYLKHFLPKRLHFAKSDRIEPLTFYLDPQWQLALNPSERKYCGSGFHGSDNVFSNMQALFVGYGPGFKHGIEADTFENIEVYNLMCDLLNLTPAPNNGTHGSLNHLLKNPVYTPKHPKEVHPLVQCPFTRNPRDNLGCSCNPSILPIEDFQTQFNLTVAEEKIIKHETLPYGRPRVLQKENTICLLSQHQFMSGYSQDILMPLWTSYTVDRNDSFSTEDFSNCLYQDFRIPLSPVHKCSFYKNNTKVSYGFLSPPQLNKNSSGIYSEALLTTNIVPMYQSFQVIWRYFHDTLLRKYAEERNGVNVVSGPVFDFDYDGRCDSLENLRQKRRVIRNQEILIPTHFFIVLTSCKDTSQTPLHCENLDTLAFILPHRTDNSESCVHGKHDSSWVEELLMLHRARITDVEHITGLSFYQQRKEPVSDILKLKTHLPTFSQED

[2] = molecular target: T1, Ectonucleotide pyrophosphatase/phosphodiesterase family member 1; test: Inhibition of ENPP1 in human MDA-MB-231 cells using p-NPh-5TMP as substrate at pH 9.5 measured after 60 mins; type: cell-based
THP-1 = test: Activation of STING signalling pathway in human THP-1 cells assessed as increase in IFNB1 expression at 10 to 1000 nM measured after 18 hrs in presence of cGAMP by qPCR analysis; type: cell-based; conditions: filed as activator, dose 10-1000 nM
[3] = molecular target: Voltage-gated inwardly rectifying potassium channel KCNH2 (Homo sapiens, UniProt Q12809); test: Inhibition of hERG expressed in CHO cells by QPatch automated patch-clamp assay; type: toxicity, cell-based
[4] = Cmax in Sprague-Dawley rat at 10 mg/kg, iv measured upto 24 hrs by LC-MS/MS analysis; type: ADME, organism-based; conditions: in vivo
[5] = molecular target: T1, Ectonucleotide pyrophosphatase/phosphodiesterase family member 1; test: Inhibition of ENPP1 in human MDA-MB-231 cells using p-NPh-5TMP as substrate at pH 8.5 measured after 60 mins; type: cell-based
[6] = Half life in Sprague-Dawley rat at 10 mg/kg, iv measured upto 24 hrs by LC-MS/MS analysis; type: ADME, organism-based; conditions: in vivo
[7] = AUC(0 to t) in Sprague-Dawley rat at 10 mg/kg, iv measured upto 24 hrs by LC-MS/MS analysis; type: ADME, organism-based; conditions: in vivo
[8] = Clearance in Sprague-Dawley rat at 10 mg/kg, iv measured upto 24 hrs by LC-MS/MS analysis; type: ADME, organism-based; conditions: in vivo
[9] = MRT (0 to t) in Sprague-Dawley rat at 10 mg/kg, iv measured upto 24 hrs by LC-MS/MS analysis; type: ADME, organism-based; conditions: in vivo
[10] = Apparent permeability across apical to basal side in human Caco-2 cells at 10 uM by LC-MS/MS analysis; type: ADME, cell-based
[11] = Apparent permeability across basal to apical side in human Caco-2 cells at 10 uM by LC-MS/MS analysis; type: ADME, cell-based
[12] = Efflux ratio of apparent permeability from basolateral to apical side over apical to basolateral side in human Caco-2 cells at 10 uM by LC-MS/MS analysis; type: ADME, cell-based
THP1-Dual [13] = test: (§1) Activation of STING-mediated immune response in human THP1-Dual cells assessed as increase in cGAMP-induced ISRE activation preincubated in conditioned medium containing 36 hrs compound treated with human MDA-MB-231 cells measured after 24 hrs by quanti-luc luciferase assay; type: cell-based; conditions: filed as activator, time 60.0 hrs
THP1-Dual KO-STING [14] = test: Activation of STING-mediated immune response in human THP1-Dual KO-STING cells assessed as cGAMP-induced ISRE activation at 1 uM preincubated with conditioned medium containing 36 hrs compound treated with human MDA-MB-231 cells and measured after 24 hrs by quanti-luc luciferase assay; type: cell-based; conditions: filed as activator, time 60.0 hrs
THP1-Dual KO-STING [15] = test: Cytotoxicity against human THP1-Dual KO-STING cells assessed as effect on cell viability at 1 uM followed by addition of conditioned medium containing 36 hrs compound pretreated human MDA-MB-231 cells measured after 24 hrs by celltiter-glo assay; type: functional, cell-based; conditions: time 60.0 hrs
THP1-Dual [16] = test: Cytotoxicity against human THP1-Dual cells assessed as effect on cell viability at 10 to 1000 nM pretreated with compound in serum-free medium for 36 hrs in presence of cGAMP followed by replacement with condition medium and measured after 24 hrs by celltiter-glo assay; type: functional, cell-based; conditions: dose 10-1000 nM, time 60.0 hrs
[17] = molecular target: T1, Ectonucleotide pyrophosphatase/phosphodiesterase family member 1; test: Binding affinity to human ENPP1 assessed as inhibition constant
CT26 = test: Antitumor activity against mouse CT26 cells allografted in female BALB/c mouse assessed as tumor growth inhibition at 200 mg/kg QD, po measured every 2 days for 12 days relative to control; type: functional; conditions: CT26, 288 h, time 12 day, read-out: TGI
[18] = Toxicity in female BALB/c mouse allografted with mouse CT26 cells assessed as change in body weight at 200 mg/kg QD, po measured every 2 days for 12 days; type: organism-based; conditions: in vivo, 288 h, time 12 day
THP1-Dual [19] = test: as §1, with “activation by measuring type 1 IFN response at 10 to 1000 nM” for “activation”; type: cell-based; conditions: filed as activator, dose 10-1000 nM, time 60.0 hrs

Chain of Voltage-gated inwardly rectifying potassium channel KCNH2 (Q12809 whole entry): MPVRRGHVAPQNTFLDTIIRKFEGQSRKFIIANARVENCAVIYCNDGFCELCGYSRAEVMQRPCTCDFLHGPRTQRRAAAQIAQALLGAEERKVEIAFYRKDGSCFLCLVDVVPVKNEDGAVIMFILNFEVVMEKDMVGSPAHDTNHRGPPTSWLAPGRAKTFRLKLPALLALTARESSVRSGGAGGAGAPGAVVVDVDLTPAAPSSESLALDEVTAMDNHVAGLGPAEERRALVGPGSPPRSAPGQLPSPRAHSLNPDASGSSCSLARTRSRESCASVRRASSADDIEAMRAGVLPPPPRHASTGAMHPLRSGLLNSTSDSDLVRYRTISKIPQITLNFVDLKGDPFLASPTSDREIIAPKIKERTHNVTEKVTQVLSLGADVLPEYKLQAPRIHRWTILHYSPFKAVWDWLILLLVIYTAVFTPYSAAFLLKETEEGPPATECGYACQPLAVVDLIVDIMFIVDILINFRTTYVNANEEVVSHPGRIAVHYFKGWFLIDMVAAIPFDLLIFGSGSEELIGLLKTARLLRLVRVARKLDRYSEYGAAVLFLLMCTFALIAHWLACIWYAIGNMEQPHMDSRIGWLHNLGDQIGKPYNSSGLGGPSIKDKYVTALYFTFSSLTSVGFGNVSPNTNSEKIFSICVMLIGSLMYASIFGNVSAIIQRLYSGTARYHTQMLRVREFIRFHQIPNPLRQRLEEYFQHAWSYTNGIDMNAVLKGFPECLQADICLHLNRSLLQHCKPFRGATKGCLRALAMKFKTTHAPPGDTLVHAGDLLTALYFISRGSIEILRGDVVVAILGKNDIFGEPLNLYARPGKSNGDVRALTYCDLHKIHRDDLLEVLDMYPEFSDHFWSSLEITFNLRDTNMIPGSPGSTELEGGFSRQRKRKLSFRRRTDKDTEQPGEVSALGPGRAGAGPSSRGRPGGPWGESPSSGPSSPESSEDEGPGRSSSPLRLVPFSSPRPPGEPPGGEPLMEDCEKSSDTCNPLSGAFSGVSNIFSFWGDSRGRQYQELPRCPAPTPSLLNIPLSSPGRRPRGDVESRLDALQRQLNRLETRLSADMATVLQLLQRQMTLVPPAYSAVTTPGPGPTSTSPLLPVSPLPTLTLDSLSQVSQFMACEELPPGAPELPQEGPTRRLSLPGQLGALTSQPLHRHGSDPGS

With `COc1cccc2c(N3CCC(C#N)(CNS(N)(=O)=O)CC3)c(C#N)cnc12` the IC50 [1] was 6.65 nM, the IC50 [2] was 0.97 nM and the Activity (THP-1) was “Active”. It also gave an IC50 [3] greater than 40000 nM.
Work on `COc1cccc2c(N3CCC4(CC3)CC(NS(N)(=O)=O)C4)c(C#N)cnc12` yielded an IC50 [1] of 373 nM and an IC50 [2] greater than 1000 nM.
With `COc1cccc2c(N3CCC(O)(CNS(N)(=O)=O)CC3)c(C#N)cnc12` the IC50 [1] was 11.6 nM, the IC50 [2] was 1.84 nM and the Activity (THP-1) was “Active”.
For `COc1cccc2c(NC3CCC(NS(N)(=O)=O)CC3)c(C#N)cnc12` (stereo unspecified), the IC50 [1] was 40.3 nM and the IC50 [2] was 8.62 nM.
In the case of `COc1cccc2c(N3CCC(C)(CNS(N)(=O)=O)CC3)c(C#N)cnc12`, the IC50 [1] is reported as 3.84 nM, the IC50 [2] is reported as 1.07 nM and the Activity (THP-1) is reported as “Active”. It also gave an IC50 [3] greater than 40000 nM.
`COc1cccc2c(NC3CCC(NS(N)(=O)=O)CC3)ncnc12` (stereo unspecified) gave an IC50 [1] of 156 nM and an IC50 [2] greater than 1000 nM.
Compound `COc1cccc2c(N3CCC4(CC(NS(N)(=O)=O)C4)C3)c(C#N)cnc12` (stereo unspecified) has an IC50 [1] of 27.7 nM and an IC50 [2] of 6.78 nM.
`COc1cccc2c(N3CC4CC3CC4CNS(N)(=O)=O)c(C#N)cnc12` (stereo unspecified) showed an IC50 [1] of 55.5 nM and an IC50 [2] of 23.2 nM.
For `COc1cccc2c(N3CCC(O)(CCNS(N)(=O)=O)CC3)ncnc12`, the IC50 [1] was 305 nM and the IC50 [2] was 154 nM.
With `COc1cccc2c(N3CCC4(CC(NS(N)(=O)=O)C4)C3)ncnc12` (stereo unspecified) the IC50 [1] was 14.9 nM and the IC50 [2] was 5.06 nM.
`COc1cccc2c(N[C@H]3CC[C@@H](NS(N)(=O)=O)CC3)ncnc12` gave an IC50 [1] of 27.6 nM and an IC50 [2] of 42 nM.
With `COc1cccc2c(N3CCC4(CC3)CC(NS(N)(=O)=O)C4)ncnc12` the IC50 [1] was 455 nM and the IC50 [2] was greater than 1000 nM.
`COc1cccc2c(N3CCC4(CC3)CC(NS(N)(=O)=O)CO4)c(C#N)cnc12` (stereo unspecified) gave an IC50 [1] of 572 nM and an IC50 [2] greater than 1000 nM.
`COc1cccc2c(N3CCC4(CC3)CC4NS(N)(=O)=O)c(C#N)cnc12` (stereo unspecified) showed an IC50 [1] of 23.7 nM and an IC50 [2] of 6.2 nM.
For `COc1cccc2c(N3CCC(F)(CNS(N)(=O)=O)CC3)ncnc12`, the IC50 [1] was 14.9 nM and the IC50 [2] was 2.88 nM.
For `COc1cccc2c(N3CCC(CCP(=O)(O)O)CC3)ncnc12`, the Cmax [4] was 4800 ng/mL, the IC50 [1] was 0.5 nM and the IC50 [2] was 50.1 nM. The Activity (THP-1) was “Active”, the IC50 [5] was 15 nM and the half-life [6] was 0.878 h. The AUC(0-t) at 24 h [7] was 1780 ng·h/mL, the clearance [8] was 94 mL/min/kg and the MRT last at 24 h [9] was 0.39 h. It also gave a Papp A→B at 10 µM [10] of 0.118 ×10⁻⁶ cm/s, a Papp B→A at 10 µM [11] of 0.394 ×10⁻⁶ cm/s and an efflux ratio at 10 µM [12] of 3.34. For the same compound, the Activity (THP1-Dual [13]) was “Dose-dependent-effect”, the Activity (THP1-Dual KO-STING [14]) was “Active” and the Activity (THP1-Dual KO-STING [15]) was “Active”. For the same compound, the Activity (THP1-Dual [16]) was “Active” and the Ki [17] was less than 2 nM.
For `COc1cccc2c(N[C@H]3CC[C@@H](NS(N)(=O)=O)CC3)c(C#N)cnc12`, the IC50 [1] was 18 nM and the IC50 [2] was 10.7 nM.
Compound `COc1cccc2c(NC34CC(NS(N)(=O)=O)(C3)C4)ncnc12` has an IC50 [1] of 95.1 nM and an IC50 [2] greater than 1000 nM.
Compound `COc1cccc2c(N[C@H]3CC[C@H](NS(N)(=O)=O)CC3)ncnc12` has an IC50 [1] of 370 nM and an IC50 [2] greater than 1000 nM.
Work on `COc1cccc2c(NC3CC(NS(N)(=O)=O)C3)c(C#N)cnc12` (stereo unspecified) yielded an IC50 [1] of 53.7 nM and an IC50 [2] of 16.6 nM.
Work on `Cn1nc(Cc2ccc(NS(N)(=O)=O)cc2)c2ccccc2c1=O` yielded a Cmax [4] of 11400 ng/mL, an IC50 [1] of 1380 nM and an IC50 [2] of 556 nM. For the same compound, the IC50 [5] was 4560 nM, the half-life [6] was 3.24 h and the AUC(0-t) at 24 h [7] was 27900 ng·h/mL. For the same compound, the clearance [8] was 6.18 mL/min/kg, the MRT last at 24 h [9] was 2.92 h and the Papp A→B at 10 µM [10] was 6.06 ×10⁻⁶ cm/s. The Papp B→A at 10 µM [11] was 23.2 ×10⁻⁶ cm/s, the efflux ratio at 10 µM [12] was 3.82 and the inhibition in vivo at 200 mg/kg (CT26) was 39.4%. For the same compound, the Activity [18] was “Non-toxic”, the Activity (THP1-Dual [19]) was “Active” and the Activity (THP1-Dual KO-STING [15]) was “Active”. The Activity (THP1-Dual [16]) was “Active”.
Work on `COc1cccc2c(N3CCC(C)(CNS(N)(=O)=O)CC3)ncnc12` yielded an IC50 [1] of 10.2 nM and an IC50 [2] of 4.41 nM.
`COc1cccc2c(NC3CC(NS(N)(=O)=O)C3)ncnc12` (stereo unspecified) showed an IC50 [1] of 438 nM and an IC50 [2] greater than 1000 nM.
Work on `COc1cccc2c(N3CCC4(CC3)CC4NS(N)(=O)=O)ncnc12` (stereo unspecified) yielded an IC50 [1] of 95.3 nM and an IC50 [2] greater than 1000 nM.
For `COc1cccc2c(NC34CC(NS(N)(=O)=O)(C3)C4)c(C#N)cnc12`, the IC50 [1] was 6.22 nM and the IC50 [2] was 10.3 nM.
Work on `COc1cccc2c(N[C@H]3CC[C@H](CNS(N)(=O)=O)CC3)c(C#N)cnc12` yielded an IC50 [1] greater than 1000 nM and an IC50 [2] greater than 1000 nM.
For `COc1cccc2c(N[C@H]3CC[C@H](CNS(N)(=O)=O)CC3)ncnc12`, the IC50 [1] was greater than 1000 nM and the IC50 [2] was greater than 1000 nM.
In the case of `COc1cccc2c(N3CCC(F)(CNS(N)(=O)=O)CC3)c(C#N)cnc12`, the IC50 [1] is reported as 3.28 nM, the IC50 [2] is reported as 1.23 nM and the Activity (THP-1) is reported as “Active”.
